≈ marks a conversion by molar mass, not a printed value.
Experiments:
Format in all cases: functional
Bacillus cereus = assay: Minimum inhibitory concentration (MIC) preventing growth of Bacillus cereus
Bacillus subtilis = assay: Minimum inhibitory concentration (MIC) preventing growth of Bacillus subtilis
Escherichia coli = assay: Minimum inhibitory concentration (MIC)preventing growth of Escherichia coli
Klebsiella pneumoniae = assay: Minimum inhibitory concentration (MIC)preventing growth of Klebsiella pneumoniae
Morganella morganii = assay: Minimum inhibitory concentration (MIC) preventing growth of Morganella morganii
Proteus vulgaris = assay: Minimum inhibitory concentration (MIC) preventing growth of Proteus vulgaris
[1] = tested on: Staphylococcus epidermidis; assay: Minimum inhibitory concentration (MIC) preventing growth of Staphylococcus epidermidis
Staphylococcus aureus = assay: Minimum inhibitory concentration (MIC) preventing growth of […]
Enterococcus faecalis = assay: Minimum inhibitory concentration (MIC) preventing growth of Streptococcus faecalis ATCC 10541
Enterobacter cloacae = assay: Minimum inhibitory concentration (MIC)preventing growth of Enterobacter cloacae
Pseudomonas aeruginosa = assay: Minimum inhibitory concentration (MIC)preventing growth of Pseudomonas aeruginosa

MIC (Bacillus cereus)	MIC (Bacillus subtilis)	MIC (Escherichia coli)	MIC (Klebsiella pneumoniae)	MIC (Morganella morganii)	MIC (Proteus vulgaris)	MIC [1]	MIC (Staphylococcus aureus)	MIC (Enterococcus faecalis)	MIC (Enterobacter cloacae)	MIC (Pseudomonas aeruginosa)	SMILES
0.015 µg/mL (≈ 0.0427 µM)	0.015 µg/mL (≈ 0.0427 µM)	0.06 µg/mL (≈ 0.171 µM)	0.015 µg/mL (≈ 0.0427 µM)	0.12 µg/mL (≈ 0.342 µM)	0.12 µg/mL (≈ 0.342 µM)	0.06 µg/mL (≈ 0.171 µM)	0.06 µg/mL (≈ 0.171 µM)	2 µg/mL (≈ 5.69 µM)	0.12 µg/mL (≈ 0.342 µM)	2 µg/mL (≈ 5.69 µM)	Nc1c(F)c(N2CC(O)C2)c(F)c2c1c(=O)c(C(=O)O)cn2C1CC1
1 µg/mL (≈ 3.12 µM)	0.25 µg/mL (≈ 0.78 µM)	0.25 µg/mL (≈ 0.78 µM)	0.12 µg/mL (≈ 0.375 µM)	0.25 µg/mL (≈ 0.78 µM)	1 µg/mL (≈ 3.12 µM)	1 µg/mL (≈ 3.12 µM)	1 µg/mL (≈ 3.12 µM)	2 µg/mL (≈ 6.24 µM)	0.25 µg/mL (≈ 0.78 µM)	2 µg/mL (≈ 6.24 µM)	CCn1cc(C(=O)O)c(=O)c2cc(F)c(N3CC(C)(N)C3)nc21
0.5 µg/mL (≈ 1.37 µM)	0.06 µg/mL (≈ 0.165 µM)	0.25 µg/mL (≈ 0.686 µM)	0.12 µg/mL (≈ 0.329 µM)	0.5 µg/mL (≈ 1.37 µM)	0.25 µg/mL (≈ 0.686 µM)	0.25 µg/mL (≈ 0.686 µM)	0.5 µg/mL (≈ 1.37 µM)	1 µg/mL (≈ 2.74 µM)	0.5 µg/mL (≈ 1.37 µM)	2 µg/mL (≈ 5.49 µM)	CCC1(O)CN(c2c(F)cc3c(=O)c(C(=O)O)cn(C4CC4)c3c2F)C1
0.25 µg/mL (≈ 0.739 µM)	2 µg/mL (≈ 5.91 µM)	0.12 µg/mL (≈ 0.355 µM)	0.25 µg/mL (≈ 0.739 µM)	0.12 µg/mL (≈ 0.355 µM)	0.5 µg/mL (≈ 1.48 µM)	0.5 µg/mL (≈ 1.48 µM)	0.5 µg/mL (≈ 1.48 µM)	0.25 µg/mL (≈ 0.739 µM)	0.12 µg/mL (≈ 0.355 µM)	1 µg/mL (≈ 2.96 µM)	CCn1cc(C(=O)O)c(=O)c2c(N)c(F)c(N3CC(N)C3)c(F)c21
0.06 µg/mL (≈ 0.198 µM)	0.015 µg/mL (≈ 0.0496 µM)	0.12 µg/mL (≈ 0.397 µM)	0.015 µg/mL (≈ 0.0496 µM)	0.25 µg/mL (≈ 0.827 µM)	0.06 µg/mL (≈ 0.198 µM)	0.06 µg/mL (≈ 0.198 µM)	0.06 µg/mL (≈ 0.198 µM)	2 µg/mL (≈ 6.62 µM)	0.12 µg/mL (≈ 0.397 µM)	2 µg/mL (≈ 6.62 µM)	O=C(O)c1cn(C2CC2)c2cc(N3CCC3)c(F)cc2c1=O
0.25 µg/mL (≈ 0.781 µM)	0.015 µg/mL (≈ 0.0468 µM)	0.25 µg/mL (≈ 0.781 µM)	0.25 µg/mL (≈ 0.781 µM)	0.25 µg/mL (≈ 0.781 µM)	0.25 µg/mL (≈ 0.781 µM)	0.12 µg/mL (≈ 0.375 µM)	0.25 µg/mL (≈ 0.781 µM)	1 µg/mL (≈ 3.12 µM)	0.25 µg/mL (≈ 0.781 µM)	2 µg/mL (≈ 6.24 µM)	O=C(O)c1cn(C2CC2)c2c(F)c(N3CCC3)c(F)cc2c1=O
0.5 µg/mL (≈ 1.38 µM)	0.25 µg/mL (≈ 0.688 µM)	0.5 µg/mL (≈ 1.38 µM)	0.25 µg/mL (≈ 0.688 µM)	3 µg/mL (≈ 8.26 µM)	1 µg/mL (≈ 2.75 µM)	0.5 µg/mL (≈ 1.38 µM)	1 µg/mL (≈ 2.75 µM)	2 µg/mL (≈ 5.5 µM)	0.5 µg/mL (≈ 1.38 µM)	4 µg/mL (≈ 11 µM)	CC1(CN)CN(c2c(F)cc3c(=O)c(C(=O)O)cn(C4CC4)c3c2F)C1
0.12 µg/mL (≈ 0.317 µM)	0.015 µg/mL (≈ 0.0396 µM)	0.12 µg/mL (≈ 0.317 µM)	0.015 µg/mL (≈ 0.0396 µM)	0.25 µg/mL (≈ 0.661 µM)	0.12 µg/mL (≈ 0.317 µM)	0.12 µg/mL (≈ 0.317 µM)	0.12 µg/mL (≈ 0.317 µM)	2 µg/mL (≈ 5.29 µM)	0.12 µg/mL (≈ 0.317 µM)	2 µg/mL (≈ 5.29 µM)	CC(=O)OC1CN(c2c(F)cc3c(=O)c(C(=O)O)cn(C4CC4)c3c2F)C1
0.12 µg/mL (≈ 0.361 µM)	0.06 µg/mL (≈ 0.181 µM)	0.03 µg/mL (≈ 0.0903 µM)	0.03 µg/mL (≈ 0.0903 µM)	0.06 µg/mL (≈ 0.181 µM)	0.25 µg/mL (≈ 0.752 µM)	0.12 µg/mL (≈ 0.361 µM)	0.25 µg/mL (≈ 0.752 µM)	0.5 µg/mL (≈ 1.5 µM)	0.03 µg/mL (≈ 0.0903 µM)	0.5 µg/mL (≈ 1.5 µM)	CNC1CN(c2nc3c(cc2F)c(=O)c(C(=O)O)cn3C2CC2)C1
0.12 µg/mL (≈ 0.32 µM)	0.03 µg/mL (≈ 0.0801 µM)	0.03 µg/mL (≈ 0.0801 µM)	0.06 µg/mL (≈ 0.16 µM)	0.06 µg/mL (≈ 0.16 µM)	0.06 µg/mL (≈ 0.16 µM)	0.06 µg/mL (≈ 0.16 µM)	0.06 µg/mL (≈ 0.16 µM)	0.5 µg/mL (≈ 1.34 µM)	0.06 µg/mL (≈ 0.16 µM)	1 µg/mL (≈ 2.67 µM)	CN(C)C1CN(c2cc3c(cc2F)c(=O)c2c(=O)[nH]sc2n3C2CC2)C1
> 16 µg/mL	> 16 µg/mL	> 16 µg/mL	> 16 µg/mL	> 16 µg/mL	> 16 µg/mL	> 16 µg/mL	> 16 µg/mL	> 16 µg/mL	> 16 µg/mL	> 16 µg/mL	O=C(O)c1cn(C2CC2)c2c(F)c(N3CC(C(=O)O)C3)c(F)cc2c1=O
0.03 µg/mL (≈ 0.0832 µM)	0.015 µg/mL (≈ 0.0416 µM)	0.015 µg/mL (≈ 0.0416 µM)	0.015 µg/mL (≈ 0.0416 µM)	0.015 µg/mL (≈ 0.0416 µM)	0.06 µg/mL (≈ 0.166 µM)	0.03 µg/mL (≈ 0.0832 µM)	0.06 µg/mL (≈ 0.166 µM)	0.12 µg/mL (≈ 0.333 µM)	0.015 µg/mL (≈ 0.0416 µM)	0.25 µg/mL (≈ 0.694 µM)	CC1(N)CN(c2cc3c(cc2F)c(=O)c2c(=O)[nH]sc2n3C2CC2)C1
